Earlier results in patent US8021854B2, “Method of treating vascular disease” (priority 2007, dated 2011).
Where two headings read alike, the source gives them in different places.

Experiments:
[1] = tested on: patients with myeloproliferative disorders; settings: 577 patients
[2] = tested on: platelets of patients with essential thrombocythaemia; settings: during therapy
[3] = tested on: patients with thrombocythemic states; settings: 942 patients
[4] = tested on: patients with and without significant cardiovascular history
[5] = in vivo
[6] = tested on: patients with essential thrombocythemia at high risk for vascular events; settings: versus hydroxyurea group
vaso-occlusive disease = settings: low doses of aspirin

O=C1CN2Cc3c(ccc(Cl)c3Cl)N=C2N1 [anagrelide]
study population that discontinued therapy due to adverse events ([1]; mean treatment duration 65 weeks): Sixteen
discontinuation of therapy due to cardiovascular adverse events ([1]; 23 patients): 4%
palpitations and tachycardia (patients) ([1]; 209 patients): 36%
patients who died from cardiovascular adverse events ([1]; four had preexisting coronary artery disease): Seven
congestive heart failure (patients) ([1]; fourteen patients): 2.4%
functional or chemical platelet abnormalities [2]: no functional or chemical abnormality was improved
platelet count [2]: corrected
platelet volume [2]: constantly increased
deaths [3]: 50
deaths from cardiac causes [3]: 15
fluid retention [3]: 22%
palpitations [3]: 26%
patients who discontinued the agent due to adverse events [3]: Thirteen
severity of cardiovascular events (palpitations, edema, tachycardia) ([4]; 492 patients): generally mild and did not increase cardiovascular disease morbidity
patients experiencing cardiovascular adverse events ([4]; patients with history of cardiac disease, 22 of 90): 24%
patients experiencing cardiovascular adverse events ([4]; patients without history of cardiac disease, 30 of 402, p=0.0001): 7%
adverse reaction: chest pain [5]: 8%
adverse reaction: peripheral edema [5]: 9%
adverse reaction: tachycardia [5]: 8%
withdrawal from assigned treatment ([6]; P<0.001): more likely to withdraw
odds ratio of reaching the primary end point ([6]; median follow-up 39 months, 95 percent CI 1.04 to 2.37, P=0.03): 1.57

CC(=O)Oc1ccccc1C(=O)O [aspirin, Acetyl salicylic acid]
incidence of major haemorrhage (vaso-occlusive disease): less than 1%
morbidity and mortality reductions (vaso-occlusive disease; vaso-occlusive disease, Physician's Health Study): 45%
